For two molecules, CC50 results are on record in paper PMC9014634 (Journal of Pharmacological Sciences, 2022).

Molecules are shown by their SMILES.

A short description of this data set: in vitro. The data set is classed as cell-based. As to conditions: human.

The molecule `C[C@]12C=CC(=O)C=C1CC[C@@H]1[C@@H]2[C@@H](O)C[C@@]2(C)[C@H]1C[C@H]1O[C@@H](C3CCCCC3)O[C@]12C(=O)CO` [Cic2, desisobutyryl ciclesonide] yielded a CC50 of more than 30 µM. In turn, `CC(C)C(=O)OCC(=O)[C@@]12O[C@H](C3CCCCC3)O[C@@H]1C[C@H]1[C@@H]3CCC4=CC(=O)C=C[C@]4(C)[C@H]3[C@@H](O)C[C@@]12C` [Cic, Ciclesonide] gave a CC50 of more than 30 µM.
